Format in all cases: cell-based, human
The test system of test [1] is uPAR-positive sorted NCI-H211 cells. In words: Cytotoxicity assay (Guava ViaCount), 5-FU, sorted uPAR-positive NCI-H211. The note with it: uPAR-positive sorted NCI-H211, 72 hours. On the procedure:
(§1) FIG. 2: Cytotoxic effect of 5-FU on non-sorted and sorted (uPAR-positive and uPAR-negative populations) derived from SCLC cell lines. (A) […] cells (H211, H69AR, H1417) were placed in wells of a 48-well plate in triplicates and incubated for 72 hr in the presence of varying concentrations of 5-FU. (B) SCLC cell lines were FACS sorted after staining with anti-uPAR antibodies and were plated at the same seeding density ([…]/well of 96-well plate) and treated with 5-FU at […] for 72 hr. Cell survival was evaluated after adding Guava ViaCount reagent and counting viable and dead cells. Only viable cells were included in data analysis, and 100% viability was defined as number of viable cells cultured in absence of 5-FU. […] The data points represent averages±SD of three independent experiments. […]
(§2) Cells were counted, placed into 96-well plates (4×10^3 cells/well, in triplicate), and treated with 5-fluorouracil (5-FU) at a final concentration of 0, 3, 10, 100, or 200 μg/ml. After incubation for 72 hours, both viable and dead cells were counted using the Guava ViaCount assay. […] Fluorescence of the dyes allows quantitative assessment of both viable and non-viable cells in suspension. […]

Test [2] concerns uPAR-negative NCI-H69AR cells. In words: Cytotoxicity assay (Guava ViaCount), 5-FU, sorted uPAR-negative NCI-H69AR. The note with it: 72 hours. How it is done: as §1, §2
Test [3] deals with non-sorted NCI-H211, NCI-H69AR, NCI-H1417 cells. In words: Cytotoxicity assay (Guava ViaCount), 5-FU, non-sorted SCLC cell lines. The note with it: 5-FU up to 200 μg/ml, 72 hours. How it is done: as §1, §2
Test [4] concerns uPAR-positive NCI-H69AR cells. In words: Cytotoxicity assay (Guava ViaCount), 5-FU, sorted uPAR-positive NCI-H69AR. The note with it: 72 hours. On the procedure:
as §1, §2

Test [5] deals with uPAR-positive sorted NCI-H1417 cells. In words: Cytotoxicity assay (Guava ViaCount), 5-FU, sorted uPAR-positive NCI-H1417. The note with it: uPAR-positive sorted NCI-H1417, 72 hours. How it is done:
as §1, §2

Another test has as its system NSC F3 stem cell. In words: Inhibition of stem cell migration by uPAR inhibitors, in vitro migration assay. The note with it: inhibitor applied to lower chamber of migration assay system. The source says:
FIG. 10: Inhibition of NSC F3 stem cell migration by anti-uPAR antibodies and bikunin.
The role of the uPA/uPAR system in stem cell migration was investigated using the immortalized neural stem cell line (NSC) HB1.F3.C1 and bone marrow-derived mesenchymal stem cells (MSC) (passages 5-6) for in vitro cell migration assays. Five cancer cell lines expressing high levels of uPAR (SK-N-AS, U251, PC-3, MDA-MB-231, and CRL-5904) and five cancer cell lines expressing low levels of uPAR (COLO-320, NB-1691, CRL-5824, CRL-5869, and MCF-7) as determined in Example 6 were utilized for this experiment.
The effect of uPAR inhibitors on stem cell migration was examined in order to verify that increased stem cell migration to tumor cells expressing high levels of uPAR was dependent on uPAR. Bikunin, a physiological inhibitor of uPA, and various anti-uPAR antibodies were applied to the lower chamber of the migration assay system.

For `O=c1[nH]cc(F)c(=O)[nH]1` [5-FU, 5-fluorouracil], the cells killed in test [1] was 40-50%; in test [2] (10 μg/ml 5-FU), 85%; in test [3], 40-80%; in test [4] (10 μg/ml 5-FU), 30%; in test [5], 40-50%. In addition, the killing effect result in test [2] (200 μg/ml 5-FU) and in test [4] (200 μg/ml 5-FU) was “approximately 100%” throughout.

B1: Bikunin: a physiological inhibitor of uPA (protein, UniProt P02760 206-352, looked up)
Inter-alpha-trypsin inhibitor …: AVLPQEEEGSGGGQLVTEVTKKEDSCQLGYSAGPCMGMTSRYFYNGTSMACETFQYGGCMGNGNNFVTEKECLQTCRTVAACNLPIVRGPCRAFIQLWAFDAVKGKCVLFPYGGCQGNGNKFYSEKECREYCGVPGDGDEELLRFSN
modifications: Inter-alpha-trypsin inhibitor light chain
With B1, in the test with NSC F3 stem cell, the “inhibition of stem cell migration” value is on record as “effectively inhibited stem cell migration”.

The record behind these values is patent US8569055B2, “Identification and characterization of cancer stem cells and methods of use” (City of Hope, priority 2006, dated 2013).
